Activity calls are given as the source filed them. No cut-off for these calls is given here.
Tests used:
[1] = system: L1210; assay: Antitumor activity against mouse L1210 cells; type: functional, cell-based
[2] = system: L1210; assay: Cell cycle arrest in mouse L1210 cells by decrease in accumulation at G1 phase at 0.01-0.1 ug/mL after 24 hrs by flow cytometry; type: functional, cell-based
[3] = system: MC-38; assay: Antitumor activity in BDF1 mouse bearing colon 38 cells assessed as cell death at 0.05 mg/kg, iv daily 4 times for 3 days; type: functional
[4] = system: L1210; assay: Antitumor activity against mouse L1210 cells assessed as inhibition of [3H]thymidine uptake after 48 hrs; type: functional, cell-based
[5] = system: L1210; assay: Cell cycle arrest in mouse L1210 cells by increase in accumulation at S phase at 0.01-0.1 ug/mL after 24 hrs by flow cytometry; type: functional, cell-based
[6] = system: MC-38; assay: Antitumor activity in BDF1 mouse bearing colon 38 cells assessed as maximum weight loss at 0.05 mg/kg, iv daily 4 times for 3 days; type: functional
[7] = system: L1210; assay: Cell cycle arrest in mouse L1210 cells by increase in accumulation at S phase at 0.1 ug/mL after 3 hrs by flow cytometry relative to control; type: functional, cell-based
[8] = system: L1210; assay: Cell cycle arrest in mouse L1210 cells by accumulation at G2/M phase at 0.1 ug/ml after 24 hrs by flow cytometry; type: functional, cell-based
[9] = system: MC-38; assay: Antitumor activity in BDF1 mouse bearing colon 38 cells assessed as tumor growth inhibition at 0.05 mg/kg, iv daily 4 times for 3 days; type: functional; settings: MC-38, 72 h, read-out: TGI
[10] = system: L1210; assay: Cell cycle arrest in mouse L1210 cells by accumulation at S phase at 0.1 ug/ml after 24 hrs by flow cytometry; type: functional, cell-based
[11] = system: L1210; assay: Cell cycle arrest in mouse L1210 cells by increase in accumulation at G2/M phase at 0.01-0.1 ug/mL after 24 hrs by flow cytometry; type: functional, cell-based
[12] = system: L1210; assay: Cell cycle arrest in mouse L1210 cells by increase in accumulation at S phase at 0.1 ug/mL after 12 hrs by flow cytometry; type: functional, cell-based
[13] = system: SK-OV-3; assay: Antitumor activity against human SKOV3 cells assessed as inhibition of [3H]thymidine uptake after 72 hrs; type: functional, cell-based
[14] = system: MC-38; assay: Antitumor activity in BDF1 mouse bearing colon 38 cells assessed as tumor growth inhibition at 70 mg/kg, iv daily 4 times for 3 days; type: functional; settings: MC-38, 72 h, read-out: TGI
[15] = system: MC-38; assay: Antitumor activity in BDF1 mouse bearing colon 38 cells assessed as cell death at 70 mg/kg, iv daily 4 times for 3 days; type: functional
[16] = system: MC-38; assay: Antitumor activity in BDF1 mouse bearing colon 38 cells assessed as maximum weight loss at 70 mg/kg, iv daily 4 times for 3 days; type: functional
[17] = system: MC-38; assay: Antitumor activity in BDF1 mouse bearing colon 38 cells assessed as maximum weight loss at 100 mg/kg, iv daily 4 times for 3 days; type: functional
[18] = system: MC-38; assay: Antitumor activity in BDF1 mouse bearing colon 38 cells assessed as tumor growth inhibition at 100 mg/kg, iv daily 4 times for 3 days; type: functional; settings: MC-38, 72 h, read-out: TGI
[19] = system: MC-38; assay: Antitumor activity in BDF1 mouse bearing colon 38 cells assessed as cell death at 100 mg/kg, iv daily 4 times for 3 days; type: functional
[20] = system: SK-OV-3; assay: Anticancer activity in CD1 mouse xenografted with human SKOV3 cells assessed as weight change at 25 mg/kg, ip; type: functional; settings: route intraperitoneal
[21] = system: SK-OV-3; assay: Anticancer activity in CD1 mouse xenografted with human SKOV3 cells assessed as tumor growth inhibition at 25 mg/kg, ip; type: functional; settings: SK-OV-3, ip, route intraperitoneal, read-out: TGI
[22] = system: MC-38; assay: Antitumor activity in BDF1 mouse bearing colon 38 cells assessed as tumor growth inhibition at 0.15 mg/kg, iv daily 4 times for 3 days; type: functional; settings: MC-38, 72 h, read-out: TGI
[23] = Antitumor activity in BALB/c mouse bearing JC cells assessed as cell death at 0.25 mg/kg, iv daily 4 times for 2 days; type: functional
[24] = system: MC-38; assay: Antitumor activity in BDF1 mouse bearing colon 38 cells assessed as cell death at 0.15 mg/kg, iv daily 4 times for 3 days; type: functional
[25] = system: MC-38; assay: Antitumor activity in BDF1 mouse bearing colon 38 cells assessed as cell death at 0.3 mg/kg, iv daily 4 times for 2 days; type: functional
[26] = Antitumor activity in BALB/c mouse bearing JC cells assessed as tumor growth inhibition at 0.25 mg/kg, iv daily 4 times for 2 days; type: functional; settings: 48 h, read-out: TGI
[27] = system: MC-38; assay: Antitumor activity in BDF1 mouse bearing colon 38 cells assessed as maximum weight loss at 0.15 mg/kg, iv daily 4 times for 3 days; type: functional
[28] = Antitumor activity in BALB/c mouse bearing JC cells assessed as cell death at 0.16 mg/kg, iv daily 4 times for 3 days; type: functional
[29] = system: SK-OV-3; assay: Anticancer activity in CD1 mouse xenografted with human SKOV3 cells assessed as tumor growth inhibition at 0.13 mg/kg, iv; type: functional; settings: read-out: TGI
[30] = Antitumor activity in BALB/c mouse bearing JC cells assessed as cell death at 0.20 mg/kg, iv daily 4 times for 3 days; type: functional; settings: dose 0.2 mg/kg
[31] = Antitumor activity in BALB/c mouse bearing JC cells assessed as maximum weight loss at 0.20 mg/kg, iv daily 4 times for 3 days; type: functional; settings: dose 0.2 mg/kg
[32] = Antitumor activity in BALB/c mouse bearing JC cells assessed as tumor growth inhibition at 0.16 mg/kg, iv daily 4 times for 3 days; type: functional; settings: 72 h, read-out: TGI
[33] = system: MC-38; assay: Antitumor activity in BDF1 mouse bearing colon 38 cells assessed as maximum weight loss at 0.3 mg/kg, iv daily 4 times for 2 days; type: functional
[34] = system: L1210; assay: Antitumor activity in BDF1 mouse bearing mouse L1210 cells assessed as increase of life span at 0.1 mg/kg, iv; type: functional
[35] = system: MC-38; assay: Antitumor activity in BDF1 mouse bearing colon 38 cells assessed as tumor growth inhibition at 0.3 mg/kg, iv daily 4 times for 2 days; type: functional; settings: MC-38, 48 h, read-out: TGI
[36] = Antitumor activity in BALB/c mouse bearing JC cells assessed as tumor growth inhibition at 0.20 mg/kg, iv daily 4 times for 3 days; type: functional; settings: 72 h, read-out: TGI
[37] = system: L1210; assay: Antitumor activity in BDF1 mouse bearing mouse L1210 cells assessed as increase of life span at 0.05 mg/kg, iv; type: functional
[38] = Antitumor activity in BALB/c mouse bearing JC cells assessed as maximum weight loss at 0.25 mg/kg, iv daily 4 times for 2 days; type: functional
[39] = system: L1210; assay: Antitumor activity in BDF1 mouse bearing mouse L1210 cells assessed as increase of life span at 0.2 mg/kg, iv; type: functional
[40] = system: L1210; assay: Antitumor activity in BDF1 mouse bearing mouse L1210 cells assessed as increase of life span at 0.4 mg/kg, iv; type: functional
[41] = Antitumor activity in BALB/c mouse bearing JC cells assessed as maximum weight loss at 0.16 mg/kg, iv daily 4 times for 3 days; type: functional
[42] = system: SK-OV-3; assay: Anticancer activity in CD1 mouse xenografted with human SKOV3 cells assessed as weight change at 0.13 mg/kg, iv; type: functional
[43] = Antitumor activity in BALB/c mouse bearing JC cells assessed as tumor growth inhibition at 8.0 mg/kg, iv daily 4 times for 3 days; type: functional; settings: 72 h, read-out: TGI
[44] = system: SK-OV-3; assay: Anticancer activity in CD1 mouse xenografted with human SKOV3 cells assessed as weight change at 5 mg/kg, iv; type: functional
[45] = system: L1210; assay: Cell cycle arrest in mouse L1210 cells by accumulation at G2/M phase at 1 ug/ml after 12 hrs by flow cytometry; type: functional, cell-based
[46] = system: L1210; assay: Antitumor activity in BDF1 mouse bearing mouse L1210 cells assessed as increase of life span at 10 mg/kg, iv; type: functional
[47] = Antitumor activity in BALB/c mouse bearing JC cells assessed as maximum weight loss at 8.0 mg/kg, iv daily 4 times for 3 days; type: functional
[48] = Antitumor activity in BALB/c mouse bearing JC cells assessed as cell death at 8.0 mg/kg, iv daily 4 times for 3 days; type: functional
[49] = system: SK-OV-3; assay: Anticancer activity in CD1 mouse xenografted with human SKOV3 cells assessed as tumor growth inhibition at 5 mg/kg, iv; type: functional; settings: read-out: TGI

O=C(Nc1ccc2[nH]c(C(=O)N3C[C@@H](CCl)c4c3cc(O)c3ccccc43)cc2c1)c1cc2cc(F)ccc2[nH]1
IC50 [1]: 0.00029 µM | Activity [2]: Active | LCK [3]: 0.68 | IC50 [4]: 0.00017 µM | Activity [5]: Active | Activity [6]: -7% | Activity [7]: Active | Activity [8]: Active | inhibition in vivo at 0.05 mg/kg [9]: 76% | Activity [10]: Active | Activity [11]: Active | Activity [12]: Active | IC50 [13]: 0.014 µM

O=c1[nH]cc(F)c(=O)[nH]1 [FLUOROURACIL]
inhibition in vivo at 70 mg/kg [14]: 95% | LCK [15]: 1.1 | Activity [16]: -7%

CCc1c2c(nc3ccc(OC(=O)N4CCC(N5CCCCC5)CC4)cc13)C1CC3=C(COC(=O)[C@]3(O)CC)C(=O)N1C2 (stereo partly drawn)
Activity [17]: -7% | inhibition in vivo at 100 mg/kg [18]: 96% | LCK [19]: 1.7

Cc1c[nH]c2c1[C@@]13C[C@@H]1CN(C(=O)c1cc4cc(NC(=O)c5cc6ccccc6o5)ccc4[nH]1)C3=CC2=O
Activity [8]: Active | Activity [10]: Active

CC/C=C\C/C=C\C/C=C\C/C=C\C/C=C\C/C=C\CCC(=O)O [DOCONEXENT]
IC50 [1]: 0.013 µM

CC(=O)O[C@H]1C(=O)[C@@]2(C)[C@H]([C@H](OC(=O)c3ccccc3)[C@]3(O)C[C@H](OC(=O)[C@H](O)[C@@H](NC(=O)c4ccccc4)c4ccccc4)C(C)=C1C3(C)C)[C@]1(OC(C)=O)CO[C@@H]1C[C@@H]2O [PACLITAXEL]
Activity [20]: -1% | inhibition in vivo at 25 mg/kg [21]: 22%

O=C(CCCCCN1C(=O)C=CC1=O)Oc1cc2c(c3ccccc13)[C@H](CCl)CN2C(=O)c1cc2cc(NC(=O)c3cc4cc(F)ccc4[nH]3)ccc2[nH]1
inhibition in vivo at 0.15 mg/kg [22]: 99% | Activity [2]: Active | LCK [23]: 2 | LCK [24]: 2.3 | LCK [25]: 2.6 | inhibition in vivo at 0.25 mg/kg [26]: 98% | Activity [27]: -10% | LCK [28]: 1.5 | inhibition in vivo at 0.13 mg/kg [29]: 52% | LCK [30]: 1.9 | IC50 [4]: 0.025 µM | Activity [5]: Active | Activity [31]: -23% | inhibition in vivo at 0.16 mg/kg [32]: 93% | Activity [33]: -25% | Activity [34]: 51% | Activity [7]: Active | Activity [8]: Active | inhibition in vivo at 0.3 mg/kg [35]: 99% | inhibition in vivo at 0.2 mg/kg [36]: 98% | Activity [37]: 40% | Activity [38]: -21% | Activity [39]: 107% | Activity [10]: Active | Activity [40]: 133% | Activity [41]: -19% | Activity [11]: Active | Activity [12]: Active | Activity [42]: -3% | IC50 [13]: 0.034 µM

CCCCCC(=O)O [HEXANOATE]
IC50 [1]: 0.0046 µM

COc1cccc2c1C(=O)c1c(O)c3c(c(O)c1C2=O)C[C@@](O)(C(=O)CO)C[C@@H]3O[C@H]1C[C@H](N)[C@H](O)[C@H](C)O1 [DOXORUBICIN]
IC50 [4]: 0.182 µM | inhibition in vivo at 8 mg/kg [43]: 82% | Activity [44]: -4% | Activity [45]: Active | Activity [46]: 85% | Activity [47]: -25% | LCK [48]: 0.78 | inhibition in vivo at 5 mg/kg [49]: 39%
